Laboratory results reported in patent US9377460B2 (priority 2009, dated 2016).

Key:
[1] = test system: IFN-gamma-secreting T cells; assay type: cell-based, human; conditions: for Proportion of responders to the Rv3615c peptide pool who respond to the individual peptide, LTBI % / Proportion of responders to the Rv3615c peptide pool who respond to the individual peptide, LTBI n: LTBI subjects; for Proportion of responders to the Rv3615c peptide pool who respond to the individual peptide, LTBI n / Proportion of responders to the Rv3615c peptide pool who respond to the individual peptide, Cases n: subjects responding/pool responders tested; for Proportion of responders to the Rv3615c peptide pool who respond to the individual peptide, Cases % / Proportion of responders to the Rv3615c peptide pool who respond to the individual peptide, Cases n: active TB cases
[2] = test system: CD4-positive T cells; experiment: FACS analysis following cytokine capture assay (IFN-gamma / IL-2); assay type: cell-based, human; conditions: subject T416 (LTBI), 6 hour stimulation

| Sequence | Proportion of responders to the Rv3615c peptide pool who respond to the individual peptide, LTBI % [1] [%] | Proportion of responders to the Rv3615c peptide pool who respond to the individual peptide, LTBI n [1] | Proportion of responders to the Rv3615c peptide pool who respond to the individual peptide, Cases % [1] [%] | Proportion of responders to the Rv3615c peptide pool who respond to the individual peptide, Cases n [1] | CD4 T cells secreting IFN-gamma only, relative size of subset [2] | CD4 T cells secreting IL-2 only, relative size of subset [2] | CD4 T cells secreting both IFN-gamma and IL-2, relative size of subset [2] |
| --- | --- | --- | --- | --- | --- | --- | --- |
| AHNALGSSLHTAGVD (listed as Mycobacterium tuberculosis) [p13, 15mer peptide of Rv3615c] | 0 | 0/4 | 21 | 3/14 |  |  |  |
| AITHGPYCSQFNDTL (listed as Mycobacterium tuberculosis) [p9, 15mer peptide of Rv3615c] | 40 | 2/5 | 0 | 0/15 |  |  |  |
| ASHHDNAAVDASSGV (listed as Mycobacterium tuberculosis) [p4, 15mer peptide of Rv3615c] | 20 | 1/5 | 13 | 2/15 |  |  |  |
| ASSGVEAAAGLGESV (listed as Mycobacterium tuberculosis) [p6, 15mer peptide of Rv3615c] | 0 | 0/5 | 7 | 1/15 |  |  |  |
| DEAWRKAIDGLFT (listed as Mycobacterium tuberculosis) [p19, carboxy-terminal peptide of Rv3615c] | 25 | 1/4 | 15 | 2/13 |  |  |  |
| EAAAGLGESVAITHG (listed as Mycobacterium tuberculosis) [p7, 15mer peptide of Rv3615c] | 0 | 0/5 | 7 | 1/15 |  |  |  |
| FNDTLNVYLTAHNAL (listed as Mycobacterium tuberculosis) [p11, 15mer peptide of Rv3615c] | 0 | 0/5 | 27 | 4/15 |  |  |  |
| GSSLHTAGVDLAKSL (listed as Mycobacterium tuberculosis) [p14, 15mer peptide of Rv3615c] | 50 | 2/4 | 79 | 11/14 | smallest population | second largest population | dominant population |
| IYSEADEAWRKAIDG (listed as Mycobacterium tuberculosis) [p18, 15mer peptide of Rv3615c] | 25 | 1/4 | 8 | 1/13 |  |  |  |
| LAKSLRIAAKIYSEA (listed as Mycobacterium tuberculosis) [p16, 15mer peptide of Rv3615c] | 100 | 4/4 | 69 | 9/13 | smallest population | second largest population | dominant population |
| LGESVAITHGPYCSQ (listed as Mycobacterium tuberculosis) [p8, 15mer peptide of Rv3615c] | 0 | 0/5 | 7 | 1/15 |  |  |  |
| MTENLTVQPERLGVL (listed as Mycobacterium tuberculosis) [p1, 15mer peptide of Rv3615c] | 0 | 0/5 | 7 | 1/15 |  |  |  |
| NAAVDASSGVEAAAG (listed as Mycobacterium tuberculosis) [p5, 15mer peptide of Rv3615c] | 20 | 1/5 | 13 | 2/15 |  |  |  |
| NVYLTAHNALGSSLH (listed as Mycobacterium tuberculosis) [p12, 15mer peptide of Rv3615c] | 40 | 2/5 | 43 | 6/14 |  |  |  |
| PYCSQFNDTLNVYLT (listed as Mycobacterium tuberculosis) [p10, 15mer peptide of Rv3615c] | 40 | 2/5 | 40 | 6/15 |  |  |  |
| RIAAKIYSEADEAWR (listed as Mycobacterium tuberculosis) [p17, 15mer peptide of Rv3615c] | 50 | 2/2 | 38 | 5/13 |  |  |  |
| RLGVLASHHDNAAVD (listed as Mycobacterium tuberculosis) [p3, 15mer peptide of Rv3615c] | 40 | 2/5 | 20 | 3/15 |  |  |  |
| TAGVDLAKSLRIAAK (listed as Mycobacterium tuberculosis) [p15, 15mer peptide of Rv3615c] | 50 | 2/4 | 71 | 10/14 |  |  |  |
| TVQPERLGVLASHHD (listed as Mycobacterium tuberculosis) [p2, 15mer peptide of Rv3615c] | 0 | 0/5 | 33 | 5/15 |  |  |  |
